Assay results taken from patent US20240148821A1, “PHARMACEUTICAL USE OF CYCLIC PEPTIDE COMPOUND” (CHUGAI SEIYAKU KABUSHIKI KAISHA, priority 2021, published 2024).
Numbered stars: 1 amine (or outer) side, 2 acyl side, 3 side chain; on linkers, the order of the positions; unused ones are H or OH. Bridge positions count the residues as written; N and C are the ends. Square brackets hold non-standard residues; d marks the D form. Peptide text beside a SMILES is read from it. * marks the point of attachment. hPhe(3-Cl-4-CF3) = N[C@@H](CCc1ccc(C(F)(F)F)c(Cl)c1)C(=O)O; hPhe(3-F,4-CF3) = N[C@@H](CCc1ccc(C(F)(F)F)c(F)c1)C(=O)O; NEtPhe(2-Cl) = CCN[C@@H](Cc1ccccc1Cl)C(=O)O; NMePhe(4-Me) = CN[C@@H](Cc1ccc(C)cc1)C(=O)O; NMedβ3hAla = C[C@H](CC(=O)[*:2])N(C)[*:1]; X38 = CN1CCN(CCN(CC(=O)[*:2])[*:1])CC1; mXylylene = c1cc(C[*:1])cc(C[*:2])c1; NMeGly(cBu) = CN[C@H](C(=O)O)C1CCC1; NMeCha = CN[C@@H](CC1CCCCC1)C(=O)O; cisHyp = O=C(O)[C@@H]1C[C@H](O)CN1; Hyp = O=C(O)[C@@H]1C[C@@H](O)CN1; NMeCba = CN[C@@H](CC1CCC1)C(=O)O; NMeChg = CN[C@H](C(=O)O)C1CCCCC1; NMeI = CC[C@H](C)[C@H](NC)C(=O)O; NMeD = CN[C@@H](CC(=O)O)C(=O)O; NMeL = CN[C@@H](CC(C)C)C(=O)O; NMehSer = CN[C@@H](CCO)C(=O)O; NMeV = CN[C@H](C(=O)O)C(C)C; NPhGly = O=C(O)CNc1ccccc1; Morpholide = C1CN(*)CCO1; NMeA = CN[C@@H](C)C(=O)O; NMeAib = CNC(C)(C)C(=O)O; Piperidide = C1CCN(*)CC1; Ac5c = NC1(C(=O)O)CCCC1; Aze = O=C(O)[C@@H]1CCN1; Sar = CNCC(=O)O

These molecules were tested against protein-protein interaction between Kras and SOS1 (biotin-tagged human Kras loaded with GDP, His-tagged human SOS1) (Homo sapiens (Human), UniProt P01116, G12D) (assay: Protein-protein interaction inhibition between Kras and SOS1 (KrasG12D-SOS PPI) using AlphaScreen). Details: AlphaScreen; biotin-tagged human Kras loaded with GDP, His-tagged human SOS1; read-out: KRAS G12D-SOS PPI IC50.
Type: biochemical

| Compound | IC50 [nM] |
| --- | --- |
| CC[C@H](C)[C@@H]1NC(=O)[C@H](CC(C)C)N(C)C(=O)C[C@@H](C(=O)N2CCCCC2)N(C)C(=O)[C@H](CC(C)C)N(C)C(=O)C2(CCCC2)NC(=O)[C@@H]2C[C@@H](OCc3cccc(C)c3)CN2C(=O)[C@H](CCc2ccc(C(F)(F)F)c(F)c2)NC(=O)CN(C)C(=O)[C@H](CC2CCCCC2)N(C)C(=O)CN(C)C(=O)CN(C)C1=O [Compound 2125] ([NMeL]I[Sar][Sar][NMeCha][Sar][hPhe(3-F,4-CF3)][Hyp](mXylylene)[Ac5c][NMeL][NMeD]-Piperidide; lactam N-11) | 16 |
| CC[C@H](C)[C@@H]1NC(=O)[C@H](CC(C)C)N(C)C(=O)C[C@@H](C(=O)N2CCCCC2)N(C)C(=O)[C@H](CC(C)C)N(C)C(=O)C2(CCCC2)NC(=O)[C@@H]2C[C@H](OCc3cccc(C)c3)CN2C(=O)[C@H](CCc2ccc(C(F)(F)F)c(F)c2)NC(=O)CN(C)C(=O)[C@H](CC2CCCCC2)N(C)C(=O)CN(C)C(=O)CN(C)C1=O [Compound 2141] ([NMeL]I[Sar][Sar][NMeCha][Sar][hPhe(3-F,4-CF3)][cisHyp](mXylylene)[Ac5c][NMeL][NMeD]-Piperidide; lactam N-11) | 72 |
| CC[C@H](C)[C@@H]1NC(=O)[C@H](C)N(C)C(=O)C[C@@H](C)N(C)C(=O)[C@H](C2CCC2)N(C)C(=O)C(C)(C)N(C)C(=O)CN(c2ccccc2)C(=O)[C@H](CCc2ccc(C(F)(F)F)c(Cl)c2)NC(=O)CN(C)C(=O)[C@H](C2CCC2)N(C)C(=O)[C@@H]2CCN2C(=O)[C@H](C)N(C)C1=O [Compound 2148] (cyclo([Aze][NMeGly(cBu)][Sar][hPhe(3-Cl-4-CF3)][NPhGly][NMeAib][NMeGly(cBu)][NMedβ3hAla][NMeA]I[NMeA])) | 63 |
| CC[C@H](C)[C@@H]1NC(=O)[C@H](C)N(C)C(=O)C[C@@H](C)N(C)C(=O)[C@H](CC2CCC2)N(C)C(=O)C(C)(C)N(C)C(=O)[C@@H]2CCCN2C(=O)[C@H](CCc2ccc(C(F)(F)F)c(Cl)c2)NC(=O)CN(C)C(=O)[C@H](CC2CCCCC2)N(C)C(=O)[C@@H]2CCN2C(=O)[C@H](C)N(C)C1=O [Compound 2152] (cyclo([Aze][NMeCha][Sar][hPhe(3-Cl-4-CF3)]P[NMeAib][NMeCba][NMedβ3hAla][NMeA]I[NMeA])) | 71 |
| CC[C@H](C)[C@@H]1NC(=O)[C@H](C)N(C)C(=O)C[C@@H](C)N(C)C(=O)[C@H](C2CCCCC2)N(C)C(=O)C(C)(C)N(C)C(=O)[C@@H]2CCCN2C(=O)[C@H](CCc2ccc(C(F)(F)F)c(Cl)c2)NC(=O)CN(C)C(=O)[C@H](CC2CCCCC2)N(C)C(=O)[C@@H]2CCN2C(=O)[C@H](C)N(C)C1=O [Compound 2155] (cyclo([Aze][NMeCha][Sar][hPhe(3-Cl-4-CF3)]P[NMeAib][NMeChg][NMedβ3hAla][NMeA]I[NMeA])) | 28 |
| CC[C@H](C)[C@@H]1NC(=O)[C@H](C)N(C)C(=O)C[C@@H](C)N(C)C(=O)[C@H](C2CCC2)N(C)C(=O)C(C)(C)N(C)C(=O)[C@@H]2CCCN2C(=O)[C@H](CCc2ccc(C(F)(F)F)c(Cl)c2)NC(=O)CN(C)C(=O)[C@H](CC2CCCCC2)N(C)C(=O)[C@@H]2CCN2C(=O)[C@H](C)N(C)C1=O [Compound 2157] (cyclo([Aze][NMeCha][Sar][hPhe(3-Cl-4-CF3)]P[NMeAib][NMeGly(cBu)][NMedβ3hAla][NMeA]I[NMeA])) | 6.9 |
| CC[C@H](C)[C@@H]1NC(=O)[C@H]([C@@H](C)CC)N(C)C(=O)C[C@@H](C)N(C)C(=O)[C@H](C(C)C)N(C)C(=O)C(C)(C)N(C)C(=O)[C@@H]2CCCN2C(=O)[C@H](CCc2ccc(C(F)(F)F)c(Cl)c2)NC(=O)CN(C)C(=O)[C@H](CC2CCCCC2)N(C)C(=O)[C@@H]2CCN2C(=O)[C@H](C)N(C)C1=O [Compound 2159, (5S,8S,11S,15R,18S,23aS,29S,35S,37aS)-8,11-di((S)-sec-butyl)-29-(3-chloro-4-(trifluoromethyl)phenethyl)-35-(cylohexylmethyl)-18-isopropyl-5,6,12,15,16,19,21,21,22,33,36-undecamethyltetracosahydro-2H-azeto[2,1-u]pyrrolo[2,1-i] [1,4,7,10,13,16,19,22,25,28,31]undecaazacyclotetratriacontyne-4,7,10,13,17,20,23,28,31,34,37(14H)-undecone] (cyclo([Aze][NMeCha][Sar][hPhe(3-Cl-4-CF3)]P[NMeAib][NMeV][NMedβ3hAla][NMeI]I[NMeA])) | 3.5 |
| CC[C@H](C)[C@@H]1NC(=O)[C@H](C)N(C)C(=O)C[C@@H](C(=O)N2CCCCC2)N(C)C(=O)[C@H](C(C)C)N(C)C(=O)C2(CCCC2)NC(=O)[C@H](Cc2ccccc2Cl)N(CC)C(=O)[C@H](CCc2ccc(C(F)(F)F)c(Cl)c2)NC(=O)CN(C)C(=O)[C@H](CC2CCCCC2)N(C)C(=O)CN(C)C(=O)CN(C)C1=O [Compound 2161, (8S,11S,17S,26S,29S,33S,36S)-8-[(2-chlorophenyl)methyl]-11-[2-[3-chloro-4-(trifluoromethyl)phenyl]ethyl]-17-(cyclohexylmethyl)-9-ethyl-36-isopropyl-15,18,21,24,29,30,34,37-octamethyl-26-[(1S)-1-methylpropyl]-33-(piperidine-1-carbonyl)-6,9,12,15,18,21,24,27,30,34,37-undecazaspiro[4.33]octatriacontane-7,10,13,16,19,22,25,28,31,35,38-undecone] ([NMeA]I[Sar][Sar][NMeCha][Sar][hPhe(3-Cl-4-CF3)][NEtPhe(2-Cl)][Ac5c][NMeV][NMeD]-Piperidide; lactam N-11) | 480 |
| CC[C@H](C)[C@@H]1NC(=O)[C@H](C)N(C)C(=O)C[C@@H](C(=O)N(C)C)N(C)C(=O)[C@H]([C@@H](C)CC)N(C)C(=O)C2(CCCC2)NC(=O)[C@H](Cc2ccccc2Cl)N(CC)C(=O)[C@H](CCc2ccc(C(F)(F)F)c(Cl)c2)NC(=O)CN(C)C(=O)[C@H](Cc2ccc(C)cc2)N(C)C(=O)[C@@H]2CCN2C(=O)[C@H](C)N(C)C1=O [Compound 2163] ([NMeA]I[NMeA][Aze][NMePhe(4-Me)][Sar][hPhe(3-Cl-4-CF3)][NEtPhe(2-Cl)][Ac5c][NMeI][NMeD]-NMe2; lactam N-11) | 73 |
| CC[C@H](C)[C@@H]1NC(=O)[C@H](C)N(C)C(=O)C[C@@H](C(=O)N(C)C)N(C)C(=O)[C@H](C(C)C)N(C)C(=O)C2(CCCC2)NC(=O)[C@H](Cc2ccccc2Cl)N(CC)C(=O)[C@H](CCc2ccc(C(F)(F)F)c(Cl)c2)NC(=O)CN(C)C(=O)[C@H](CC2CCCCC2)N(C)C(=O)CN(C)C(=O)CN(C)C1=O [Compound 2164] ([NMeA]I[Sar][Sar][NMeCha][Sar][hPhe(3-Cl-4-CF3)][NEtPhe(2-Cl)][Ac5c][NMeV][NMeD]-NMe2; lactam N-11) | 300 |
| CC[C@H](C)[C@@H]1NC(=O)[C@H](CC(C)C)N(C)C(=O)C[C@@H](C(=O)N(C)C)N(C)C(=O)[C@H]([C@@H](C)CC)N(C)C(=O)C2(CCCC2)NC(=O)[C@H](Cc2ccccc2Cl)N(CC)C(=O)[C@H](CCc2ccc(C(F)(F)F)c(Cl)c2)NC(=O)CN(C)C(=O)[C@H](Cc2ccc(C)cc2)N(C)C(=O)[C@@H]2CCN2C(=O)[C@H](C)N(C)C1=O [Compound 2165] ([NMeL]I[NMeA][Aze][NMePhe(4-Me)][Sar][hPhe(3-Cl-4-CF3)][NEtPhe(2-Cl)][Ac5c][NMeI][NMeD]-NMe2; lactam N-11) | 220 |
| CC[C@H](C)[C@@H]1NC(=O)[C@H](C)N(C)C(=O)C[C@@H](C(=O)N2CCCCC2)N(C)C(=O)[C@H](C(C)C)N(C)C(=O)C2(CCCC2)NC(=O)[C@H](Cc2ccccc2Cl)N(CC)C(=O)[C@H](CCc2ccc(C(F)(F)F)c(Cl)c2)NC(=O)CN(C)C(=O)[C@H](Cc2ccc(C)cc2)N(C)C(=O)CN(C)C(=O)CN(C)C1=O [Compound 2166] ([NMeA]I[Sar][Sar][NMePhe(4-Me)][Sar][hPhe(3-Cl-4-CF3)][NEtPhe(2-Cl)][Ac5c][NMeV][NMeD]-Piperidide; lactam N-11) | 330 |
| CC[C@H](C)[C@@H]1NC(=O)[C@H](C)N(C)C(=O)C[C@@H](C(=O)N2CCOCC2)N(C)C(=O)[C@H](C(C)C)N(C)C(=O)C2(CCCC2)NC(=O)[C@H](Cc2ccccc2Cl)N(CC)C(=O)[C@H](CCc2ccc(C(F)(F)F)c(Cl)c2)NC(=O)CN(C)C(=O)[C@H](CC2CCCCC2)N(C)C(=O)CN(C)C(=O)CN(C)C1=O [Compound 2167] ([NMeA]I[Sar][Sar][NMeCha][Sar][hPhe(3-Cl-4-CF3)][NEtPhe(2-Cl)][Ac5c][NMeV][NMeD]-Morpholide; lactam N-11) | 380 |
| CC[C@H](C)[C@@H]1NC(=O)[C@H](CC(C)C)N(C)C(=O)C[C@@H](C(=O)N2CCCCC2)N(C)C(=O)[C@H](C2CCCCC2)N(C)C(=O)C2(CCCC2)NC(=O)[C@H](CCOC)N(C)C(=O)[C@H](CCc2ccc(C(F)(F)F)c(Cl)c2)NC(=O)CN(C)C(=O)[C@H](CC2CCCCC2)N(C)C(=O)CN(C)C(=O)CN(C)C1=O [Compound 2168] ([NMeL]I[Sar][Sar][NMeCha][Sar][hPhe(3-Cl-4-CF3)][NMehSer](Me)[Ac5c][NMeChg][NMeD]-Piperidide; lactam N-11) | 1.3 |
| CC[C@H](C)[C@@H]1NC(=O)[C@H](CC(C)C)N(C)C(=O)C[C@@H](C(=O)N2CCCCC2)N(C)C(=O)[C@H](C2CCCCC2)N(C)C(=O)C2(CCCC2)NC(=O)CN(CCN2CCN(C)CC2)C(=O)[C@H](CCc2ccc(C(F)(F)F)c(Cl)c2)NC(=O)CN(C)C(=O)[C@H](CC2CCCCC2)N(C)C(=O)CN(C)C(=O)CN(C)C1=O [Compound 2180, (11S,17S,26S,29S,33S,36S)-11-[2-[3-chloro-4-(trifluoromethyl)phenyl]ethyl]-36-cyclohexyl-17-(cyclohexylmethyl)-29-isobutyl-15,18,21,24,30,34,37-heptamethyl-9-[2-(4-methylpiperazin-1-yl)ethyl]-26-[(1S)-1-methylpropyl]-33-(piperidine-1-carbonyl)-6,9,12,15,18,21,24,27,30,34,37-undecazaspiro[4.33]octatriacontane-7,10,13,16,19,22,25,28,31,35,38-undecone] ([NMeL]I[Sar][Sar][NMeCha][Sar][hPhe(3-Cl-4-CF3)][X38][Ac5c][NMeChg][NMeD]-Piperidide; lactam N-11) | 0.93 |
